Common to all, as to assay type: cell-based
The target in experiment [1] is T1, human dopamine transporter (hDAT) (Homo sapiens, UniProt Q01959).
T1 construct: expressed in transfected cells
Briefly: Assay of monoamine uptake: inhibition of dopamine uptake. As to conditions: Chinese Hamster Ovary cells expressing hDAT; 20 nM [3H]-neurotransmitter mixture; ambient temperature; read-out: hDAT pEC50 (inhibition of dopamine uptake) (converted). The method, then: (§1) The in vitro test for the inhibition of dopamine and serotonin uptake was performed in Chinese Hamster Ovary cells expressing the human dopamine transporter (hDAT) or the human serotonin transporter (hSERT). The in vitro test for the inhibition of noradrenaline uptake was performed in Madin Darby Canine Kidney Cells (MDCK) expressing the human noradrenaline transporter (hNET). Briefly, cell lines stably overexpressing the appropriate human transporter were propagated and plated according to standard cell culture techniques. Following plating, cells were left to adhere for either one or two days. A 6-point serial dilution (normally 1E-5M to 1E-10M) of test and reference compounds was prepared, added to the washed cells and incubated for 5 minutes at ambient temperature for dopamine or serotonin transporter overexpressing and 37° C. for noradrenaline overexpressing cells. Next, a final concentration of 20 nM of appropriate neurotransmitter (mixture of [^3H]-neurotransmitter and non-labelled neurtoransmitter) was added and the cells were incubated for three or five minutes at ambient temperature for dopamine or serotonin transporter overexpressing cells or ten minutes at 37° C. for noradrenaline overexpressing cells. Following termination of the assay, Microscint-20 was added directly to the cells and the amount of radioactivity taken up by the cells was estimated by scintillation counting.
(§2) pEC50 values indicating inhibition of monoamine uptake were calculated using standard curve fitting techniques.

The target of experiment [2] is T2, human noradrenaline transporter (hNET) (Homo sapiens, UniProt P23975).
T2 construct: expressed in transfected cells
T2 sequence (P23975 whole entry): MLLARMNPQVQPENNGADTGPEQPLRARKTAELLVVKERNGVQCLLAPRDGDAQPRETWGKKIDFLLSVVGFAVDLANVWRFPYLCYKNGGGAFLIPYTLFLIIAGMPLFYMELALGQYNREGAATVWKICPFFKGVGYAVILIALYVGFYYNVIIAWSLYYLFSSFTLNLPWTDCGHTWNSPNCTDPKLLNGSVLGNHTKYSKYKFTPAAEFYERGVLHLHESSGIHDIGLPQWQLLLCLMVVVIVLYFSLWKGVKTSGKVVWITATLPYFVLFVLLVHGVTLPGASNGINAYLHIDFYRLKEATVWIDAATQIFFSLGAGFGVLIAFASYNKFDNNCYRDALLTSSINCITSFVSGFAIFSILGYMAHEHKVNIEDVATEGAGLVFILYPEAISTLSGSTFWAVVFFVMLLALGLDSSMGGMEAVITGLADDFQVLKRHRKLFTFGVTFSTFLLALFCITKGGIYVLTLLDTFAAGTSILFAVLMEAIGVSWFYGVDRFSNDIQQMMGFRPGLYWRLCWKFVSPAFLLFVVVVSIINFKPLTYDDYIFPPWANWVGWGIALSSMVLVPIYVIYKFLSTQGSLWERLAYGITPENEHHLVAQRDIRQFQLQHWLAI
Briefly: Assay of monoamine uptake: inhibition of noradrenaline uptake. The following applies: MDCK cells expressing hNET; 20 nM [3H]-neurotransmitter mixture; 37° C.; read-out: hNET pEC50 (inhibition of noradrenaline uptake) (converted). The method, then:
as §1, §2

Experiment [3] addresses T3, human serotonin transporter (hSERT) (Homo sapiens, UniProt P31645).
T3 construct: expressed in transfected cells
Briefly: Assay of monoamine uptake: inhibition of serotonin uptake. The following applies: Chinese Hamster Ovary cells expressing hSERT; 20 nM [3H]-neurotransmitter mixture; ambient temperature; read-out: hSERT pEC50 (inhibition of serotonin uptake) (converted). The method, then:
as §1, §2

T3 sequence (P31645 whole entry): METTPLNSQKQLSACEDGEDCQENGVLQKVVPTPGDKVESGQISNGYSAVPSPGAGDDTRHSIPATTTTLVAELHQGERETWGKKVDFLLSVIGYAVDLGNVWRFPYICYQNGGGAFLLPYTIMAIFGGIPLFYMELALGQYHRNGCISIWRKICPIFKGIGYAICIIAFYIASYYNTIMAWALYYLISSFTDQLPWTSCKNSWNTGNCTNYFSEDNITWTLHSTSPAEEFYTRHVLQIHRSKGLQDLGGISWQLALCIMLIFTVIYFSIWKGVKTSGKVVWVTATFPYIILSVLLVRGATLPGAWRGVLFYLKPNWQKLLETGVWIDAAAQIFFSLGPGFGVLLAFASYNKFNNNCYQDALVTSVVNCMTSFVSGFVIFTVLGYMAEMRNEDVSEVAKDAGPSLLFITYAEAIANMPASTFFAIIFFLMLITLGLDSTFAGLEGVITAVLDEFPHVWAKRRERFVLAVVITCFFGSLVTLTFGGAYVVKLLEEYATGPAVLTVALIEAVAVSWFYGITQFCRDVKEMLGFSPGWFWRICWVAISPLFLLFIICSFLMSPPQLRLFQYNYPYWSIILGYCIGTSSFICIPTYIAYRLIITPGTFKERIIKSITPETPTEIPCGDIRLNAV
T1 sequence (Q01959 whole entry): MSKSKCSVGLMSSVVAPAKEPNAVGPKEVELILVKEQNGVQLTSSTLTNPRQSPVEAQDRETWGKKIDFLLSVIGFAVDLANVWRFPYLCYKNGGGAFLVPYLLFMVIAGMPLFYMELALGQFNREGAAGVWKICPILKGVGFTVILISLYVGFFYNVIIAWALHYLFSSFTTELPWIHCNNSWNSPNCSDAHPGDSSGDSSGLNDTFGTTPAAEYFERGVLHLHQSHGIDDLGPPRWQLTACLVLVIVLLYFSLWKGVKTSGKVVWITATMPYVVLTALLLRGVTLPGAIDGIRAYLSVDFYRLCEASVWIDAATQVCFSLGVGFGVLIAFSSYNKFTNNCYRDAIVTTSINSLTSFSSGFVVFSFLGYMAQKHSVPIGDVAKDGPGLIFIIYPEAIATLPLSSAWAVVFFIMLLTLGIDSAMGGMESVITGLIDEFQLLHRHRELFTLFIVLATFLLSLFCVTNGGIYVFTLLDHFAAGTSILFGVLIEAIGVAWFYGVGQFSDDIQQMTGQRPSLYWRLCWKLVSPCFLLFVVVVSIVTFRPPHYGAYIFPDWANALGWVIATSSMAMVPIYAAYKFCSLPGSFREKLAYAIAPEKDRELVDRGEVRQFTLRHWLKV

For the molecule `c1ccc(Oc2cccc(O[C@H]3C[C@H]4CC[C@@H](C3)N4)c2)cc1` [III.5, 3-endo-(3-Phenoxyphenoxy)-8-azabicyclo[3.2.1]octane], the EC50 in experiment [1] is under 0.1 µM; in experiment [2], 0.1 to 1 µM; in experiment [3] it was over 1 µM.
The corresponding values for `FC(F)(F)c1ccccc1-c1cccc(O[C@@H]2C[C@H]3CC[C@@H](C2)N3)c1` [IV.8, 3-exo-(2′-Trifluoromethylbiphenyl-3-yloxy)-8-azabicyclo[3.2.1]octane] are over 1 µM, under 0.1 µM and 0.1 to 1 µM.
Consider `COc1cc(Oc2ccccc2)cc(O[C@@H]2C[C@H]3CC[C@@H](C2)N3)c1F` [IV.9, 3-exo-(2-Fluoro-3-methoxy-5-phenoxyphenoxy)-8-azabicyclo[3.2.1]octane], for which the values for the EC50 in experiment [1], in experiment [2] and in experiment [3] were under 0.1 µM, under 0.1 µM and over 1 µM, respectively.
Regarding `Clc1cc(Oc2ccccc2)cc(O[C@@H]2C[C@H]3CC[C@@H](C2)N3)c1` [IV.19, 3-exo-(3-Chloro-5-phenoxyphenoxy)-8-azabicyclo[3.2.1]octane], the EC50 is under 0.1 µM in experiment [1], under 0.1 µM in experiment [2] and over 1 µM in experiment [3].
Consider `N#Cc1ccc(-c2cc(C#N)cc(O[C@@H]3C[C@H]4CC[C@@H](C3)N4)c2)nc1` [IX.3, exo 6-(3-(8-Azabicyclo[3.2.1]oct-3-yloxy)-5-cyanophenyl)nicotinonitrile], for which the EC50 in experiment [1] is over 1 µM; in experiment [2], over 1 µM; in experiment [3] it was under 0.1 µM.
As to `FC(F)(F)c1ccc(O[C@@H]2C[C@H]3CC[C@@H](C2)N3)cc1-c1ccccc1` [VI.3, 3-exo-(6-Trifluoromethylbiphenyl-3-yloxy)-8-azabicyclo[3.2.1]octane], the results for the EC50 in experiment [1], in experiment [2] and in experiment [3] were over 1 µM, over 1 µM and 0.1 to 1 µM, respectively.
Consider `N#Cc1ccc(-c2cc(C#N)cc(O[C@@H]3C[C@H]4CC[C@@H](C3)N4)c2)cc1` [VI.8, exo 5-(8-Azabicyclo[3.2.1]oct-3-yloxy)-biphenyl-3,4′-dicarbonitrile], for which the EC50 in experiment [1] is over 1 µM; in experiment [2], over 1 µM; in experiment [3] it was under 0.1 µM.

The values are drawn from patent US7605170B2, “8-azabicyclo[3.2.1]octane derivatives” (N.V. Organon, priority 2005, dated 2009).
